Experimental data reported in PubChem BioAssay (NCI).
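Protocol summary: plate cells (96-well), add compound at 5 concentrations, incubate 48 h, interpolate endpoints linearly. TGI: total growth inhibition.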

How the values were obtained:
Experiment in all cases: inhibition of tumour cell growth, NCI panel, 48 h
SK-OV-3 ovarian = tested on: SK-OV-3 ovarian
SN12C renal = tested on: SN12C renal
XF 498 CNS = tested on: XF 498 CNS
MALME-3M melanoma = tested on: MALME-3M melanoma
SF-539 CNS = tested on: SF-539 CNS
SR leukemia = tested on: SR leukemia
M14 melanoma = tested on: M14 melanoma
A498 renal = tested on: A498 renal
CAKI-1 renal = tested on: CAKI-1 renal
SNB-75 CNS = tested on: SNB-75 CNS
SF-295 CNS = tested on: SF-295 CNS
DMS 273 small cell lung = tested on: DMS 273 small cell lung
HOP-18 NSCLC = tested on: HOP-18 NSCLC
A549 NSCLC = tested on: A549 NSCLC
OVCAR-5 ovarian = tested on: OVCAR-5 ovarian
LXFL 529 NSCLC = tested on: LXFL 529 NSCLC
NCI-H226 lung = tested on: NCI-H226 lung
UACC-257 melanoma = tested on: UACC-257 melanoma
SNB-19 CNS = tested on: SNB-19 CNS
K-562 leukemia = tested on: K-562 leukemia
HOP-62 NSCLC = tested on: HOP-62 NSCLC
MOLT-4 leukemia = tested on: MOLT-4 leukemia
786-0 renal = tested on: 786-0 renal
KM12 colon = tested on: KM12 colon
HT29 colon = tested on: HT29 colon
SK-MEL-2 melanoma = tested on: SK-MEL-2 melanoma
SNB-78 CNS = tested on: SNB-78 CNS
U251 CNS = tested on: U251 CNS
DMS 114 small cell lung = tested on: DMS 114 small cell lung
SK-MEL-28 melanoma = tested on: SK-MEL-28 melanoma
IGROV1 ovarian = tested on: IGROV1 ovarian
EKVX NSCLC = tested on: EKVX NSCLC
OVCAR-8 ovarian = tested on: OVCAR-8 ovarian
DLD-1 colon = tested on: DLD-1 colon
TK-10 renal = tested on: TK-10 renal
HL-60(TB) leukemia = tested on: HL-60(TB) leukemia
SK-MEL-5 melanoma = tested on: SK-MEL-5 melanoma
HCT-15 colon = tested on: HCT-15 colon
HOP-92 NSCLC = tested on: HOP-92 NSCLC
HCT-116 colon = tested on: HCT-116 colon
NCI-H23 lung = tested on: NCI-H23 lung
RPMI-8226 leukemia = tested on: RPMI-8226 leukemia
SF-268 CNS = tested on: SF-268 CNS
ACHN renal = tested on: ACHN renal
RXF 393 renal = tested on: RXF 393 renal
NCI-H522 lung = tested on: NCI-H522 lung
KM20L2 colon = tested on: KM20L2 colon
OVCAR-4 ovarian = tested on: OVCAR-4 ovarian
COLO 205 colon = tested on: COLO 205 colon
UACC-62 melanoma = tested on: UACC-62 melanoma
NCI-H460 lung = tested on: NCI-H460 lung
UO-31 renal = tested on: UO-31 renal
M19-MEL melanoma = tested on: M19-MEL melanoma
SW-620 colon = tested on: SW-620 colon
OVCAR-3 ovarian = tested on: OVCAR-3 ovarian

CC1(C)OCC([C@H]2CC23SCCCS3)O1 (stereo partly specified) gave a TGI (SK-OV-3 ovarian) of over 100 µM, a TGI (SN12C renal) of over 100 µM and a TGI (XF 498 CNS) of over 100 µM. For the same compound, the TGI (MALME-3M melanoma) was over 100 µM, the TGI (SF-539 CNS) was over 100 µM and the TGI (SR leukemia) was over 100 µM. For the same compound, the TGI (M14 melanoma) was over 100 µM, the TGI (A498 renal) was over 100 µM and the TGI (CAKI-1 renal) was over 100 µM. It also gave a TGI (SNB-75 CNS) of over 100 µM, a TGI (SF-295 CNS) of over 100 µM and a TGI (DMS 273 small cell lung) of over 100 µM. It also gave a TGI (HOP-18 NSCLC) of over 100 µM, a TGI (A549 NSCLC) of over 100 µM and a TGI (OVCAR-5 ovarian) of over 100 µM. The TGI (LXFL 529 NSCLC) was over 100 µM, the TGI (NCI-H226 lung) was over 100 µM and the TGI (UACC-257 melanoma) was over 100 µM. It also gave a TGI (SNB-19 CNS) of over 100 µM, a TGI (K-562 leukemia) of over 100 µM and a TGI (HOP-62 NSCLC) of over 100 µM. It also gave a TGI (MOLT-4 leukemia) of over 100 µM, a TGI (786-0 renal) of over 100 µM and a TGI (KM12 colon) of over 100 µM. For the same compound, the TGI (HT29 colon) was over 100 µM, the TGI (SK-MEL-2 melanoma) was over 100 µM and the TGI (SNB-78 CNS) was over 100 µM. The TGI (U251 CNS) was over 100 µM, the TGI (DMS 114 small cell lung) was over 100 µM and the TGI (SK-MEL-28 melanoma) was over 100 µM. The TGI (IGROV1 ovarian) was over 100 µM, the TGI (EKVX NSCLC) was over 100 µM and the TGI (OVCAR-8 ovarian) was over 100 µM. It also gave a TGI (DLD-1 colon) of over 100 µM, a TGI (TK-10 renal) of over 100 µM and a TGI (HL-60(TB) leukemia) of over 100 µM. For the same compound, the TGI (SK-MEL-5 melanoma) was over 100 µM, the TGI (HCT-15 colon) was over 100 µM and the TGI (HOP-92 NSCLC) was over 100 µM. The TGI (HCT-116 colon) was over 100 µM, the TGI (NCI-H23 lung) was over 100 µM and the TGI (RPMI-8226 leukemia) was over 100 µM. It also gave a TGI (SF-268 CNS) of over 100 µM, a TGI (ACHN renal) of over 100 µM and a TGI (RXF 393 renal) of over 100 µM. The TGI (NCI-H522 lung) was over 100 µM, the TGI (KM20L2 colon) was over 100 µM and the TGI (OVCAR-4 ovarian) was over 100 µM. The TGI (COLO 205 colon) was over 100 µM, the TGI (UACC-62 melanoma) was over 100 µM and the TGI (NCI-H460 lung) was over 100 µM. It also gave a TGI (UO-31 renal) of over 100 µM.

With COc1ccc2c(c1)[n+]([O-])c(-c1ccc(C)cc1)c(N)[n+]2[O-] the TGI (SK-OV-3 ovarian) was over 100 µM, the TGI (SN12C renal) was over 100 µM and the TGI (MALME-3M melanoma) was over 100 µM. For the same compound, the TGI (SF-539 CNS) was over 100 µM, the TGI (SR leukemia) was over 100 µM and the TGI (M14 melanoma) was over 100 µM. The TGI (A498 renal) was over 100 µM, the TGI (CAKI-1 renal) was over 100 µM and the TGI (SNB-75 CNS) was over 100 µM. It also gave a TGI (SF-295 CNS) of over 100 µM, a TGI (DMS 273 small cell lung) of over 100 µM and a TGI (HOP-18 NSCLC) of over 100 µM. For the same compound, the TGI (A549 NSCLC) was over 100 µM, the TGI (OVCAR-5 ovarian) was over 100 µM and the TGI (LXFL 529 NSCLC) was over 100 µM. The TGI (NCI-H226 lung) was over 100 µM, the TGI (UACC-257 melanoma) was 62 µM and the TGI (SNB-19 CNS) was over 100 µM. It also gave a TGI (M19-MEL melanoma) of over 100 µM, a TGI (K-562 leukemia) of over 100 µM and a TGI (HOP-62 NSCLC) of over 100 µM. It also gave a TGI (786-0 renal) of over 100 µM, a TGI (KM12 colon) of over 100 µM and a TGI (HT29 colon) of over 100 µM. The TGI (SK-MEL-2 melanoma) was over 100 µM, the TGI (SNB-78 CNS) was over 100 µM and the TGI (U251 CNS) was over 100 µM. For the same compound, the TGI (DMS 114 small cell lung) was 61.4 µM, the TGI (SK-MEL-28 melanoma) was over 100 µM and the TGI (IGROV1 ovarian) was over 100 µM. The TGI (EKVX NSCLC) was over 100 µM, the TGI (OVCAR-8 ovarian) was over 100 µM and the TGI (DLD-1 colon) was over 100 µM. The TGI (HL-60(TB) leukemia) was over 100 µM, the TGI (SK-MEL-5 melanoma) was over 100 µM and the TGI (HCT-15 colon) was over 100 µM. For the same compound, the TGI (SW-620 colon) was over 100 µM, the TGI (HOP-92 NSCLC) was over 100 µM and the TGI (HCT-116 colon) was over 100 µM. It also gave a TGI (NCI-H23 lung) of 48.3 µM, a TGI (RPMI-8226 leukemia) of over 100 µM and a TGI (ACHN renal) of over 100 µM. It also gave a TGI (NCI-H522 lung) of 30.3 µM, a TGI (KM20L2 colon) of over 100 µM and a TGI (OVCAR-4 ovarian) of over 100 µM. It also gave a TGI (COLO 205 colon) of 36.4 µM, a TGI (NCI-H460 lung) of over 100 µM and a TGI (UO-31 renal) of over 100 µM. For the same compound, the TGI (OVCAR-3 ovarian) was over 100 µM.
